# Reference: publication PMC4205289, “Triptolide inhibits human immunodeficiency virus type 1 replication by promoting proteasomal degradation of Tat protein” (Retrovirology, 2014)
# “Also recorded” adds a separate entry of the source.
# Experiments:
# HIV-1 NL4-3 = assay: Time-of-addition experiment in TZM-bl cells; format: cell-based; conditions: triptolide at 5 nM, luciferase at 48 h
# Procedure: TZM-bl cells seeded in 96-well plates (2 × 10^4 /well) were infected with HIV-1 NL4-3 (MOI = 1). The virus inoculum was removed after 1 h of infection. Test compounds were added at different time points after infection (0 h, 2 h, 4 h, 6 h, 8 h, and 10 h). Dextran sulfate was added at 10 μg/mL, zidovudine at 1 μM and triptolide at 5 nM. At 48 h post-infection, the virus replication level was determined by analyzing luciferase activity in the cells as described above.
# [1] = test system: Tat-induced HIV-1 LTR activation; assay: HIV-1 LTR-luciferase reporter assay, Tat-induced, TZM-bl cells; format: cell-based; conditions: pEF1-Tat transfection, 48 h
# Procedure: (§1) The effect of the test compounds on HIV-1 LTR promoter activity was evaluated using the luciferase reporter systems in both TZM-bl and Jurkat cells. TZM-bl cells seeded in 96-well plates (2 × 10^4 cells/well) were treated with either 10 ng/mL TNF-α (Sigma-Aldrich) or co-transfected with pEF1-Tat and pRL-TK (for transfection efficiency normalization) using Lipofectamine 2000 (Invitrogen). The cells were then cultured in the presence of various concentrations of the test compounds. After 24 h (TNF-α stimulation) or 48 h (Tat transfection) of incubation, luciferase activity was determined from cell lysates using the StedyGlo reagent (for TNF-α treated cells) or a dual luciferase assay system (Promega, for transfected cells) as recommended by the manufacturer.
# [2] = test system: TNF-α-induced HIV-1 LTR activation; assay: HIV-1 LTR-luciferase reporter assay, TNF-α-induced, TZM-bl cells; format: cell-based; conditions: TNF-α 10 ng/mL, 24 h
# Procedure: as §1
# CDK9 = assay: Western blot of endogenous protein in HeLa cells; format: cell-based; conditions: in the presence of triptolide, Western blotting
# Procedure: (§2) (A) HeLa cells were transfected with pEF1-FLAG-Tat in the presence of increasing concentrations of triptolide. Cells were harvested 48 h post-transfection, and protein expression levels were determined by Western blotting. (B) HeLa cells were transfected either with pEF1-GFP (left) or pEF1-Tat-GFP (right) in the presence of increasing concentrations of triptolide. Cells were harvested 48 h post-transfection, and protein expression levels were determined by Western blotting.
# (§3) Cells were washed with phosphate buffered saline (PBS) and lysed with radio immunoprecipitation assay lysis buffer supplemented with complete mini protease inhibitor cocktail (Roche) at 4°C for 1 h. Proteins from cell lysates were separated by SDS-PAGE and transferred to polyvinylidene difluoride membranes. After overnight incubation with primary antibodies at 4°C, each blot was probed with horseradish peroxidase-conjugated secondary antibody. Immunoreactive signals were detected with an enhanced chemiluminescence substrate (Thermo Scientific) using an AlphaEaseH FC Imaging System (Alpha Innotech Corporation).
# cyclin T1 = assay: Western blot of endogenous protein in HeLa cells; format: cell-based; conditions: in the presence of triptolide, Western blotting
# Procedure: as §2, §3
# Tat-GFP fusion protein = assay: Western blot of Tat-GFP fusion proteins in HeLa cells; format: cell-based; conditions: 48 h
# Procedure: Figure 5 Triptolide specifically reduces steady-state level of Tat protein. (A) HeLa cells were transfected with pEF1-FLAG-Tat in the presence of increasing concentrations of triptolide. Cells were harvested 48 h post-transfection, and protein expression levels were determined by Western blotting. (B) HeLa cells were transfected either with pEF1-GFP (left) or pEF1-Tat-GFP (right) in the presence of increasing concentrations of triptolide. Cells were harvested 48 h post-transfection, and protein expression levels were determined by Western blotting.
# Figure 7 N-terminal domains are required for triptolide to reduce Tat steady-state levels. (A) Schematic diagram of domains of HIV-1 Tat. (B) The effects of triptolide on steady-state levels of Tat mutants. […] Cells were harvested 48 h post-transfection, and protein expression levels were determined by Western blotting. […] Cells were harvested 48 h post-transfection, and protein expression levels were determined by Western blotting. […] At 48 h post transfection, the nucleus and cytoplasm were fractionated using NE-PER nuclear and cytoplasmic extraction reagent, and protein expression levels were determined by Western blotting. […] Cells were harvested 48 h post-transfection, and protein expression levels were determined by Western blotting. […]
# FLAG-Tat = test system: T1, FLAG-Tat; assay: Proteasome inhibition rescue of Tat expression, Western blot, HeLa cells; format: cell-based, HIV-1 NL4-3; conditions: 5 nM triptolide, without MG132
# T1 construct: expressed in transfected cells; host or cells: HeLa
# Procedure: Figure 6 Triptolide reduces Tat protein stability by enhancing proteasomal degradation of Tat. (A) The effect of triptolide on Tat mRNA levels. HeLa cells were transfected with pEF1-Tat in the presence of increasing concentrations of triptolide. Cells were harvested 48 h post-transfection. The steady-state mRNA levels of Tat and GAPDH were examined using semi-quantitative reverse transcription PCR analysis. RT, reverse transcriptase. (B) The effect of triptolide on Tat protein degradation. HeLa cells were transfected with pEF1-FLAG-Tat in the presence of 5 nM triptolide or vehicle (DMSO). At 28 h post-transfection, cells were treated with 20 μg/mL of CHX to arrest protein synthesis. At 0, 1, 2, 3 h post-treatment, cells were harvested to determine protein expression levels using Western blot analysis. (C) The band intensities of FLAG-Tat in panel B were measured, and their natural log values were plotted as a function of time. Results were presented as the mean plus the standard deviations (n = 3). (D) Proteasome inhibition restores Tat protein expression. HeLa cells were transfected with pEF1-FLAG-Tat in the presence or absence of 5 nM triptolide. At 48 h post-transfection, cells were treated with 20 μM of MG132, and cultured for an additional 3 h before harvest. Protein expression levels were determined by Western blot analysis. TEXT PRINTED IN THE PICTURE: (C) DMSO: Half-lives: 2.0 h | (C) Triptolide: Half-lives: 0.4 h
# as §3
compound,measurement,setting,value
CC(C)[C@]12O[C@H]1[C@@H]1O[C@]13[C@]1(O[C@H]1C[C@H]1C4=C(CC[C@@]13C)C(=O)OC4)[C@@H]2O [triptolide],time post-infection to which addition could be postponed without losing activity,HIV-1 NL4-3,up to 10 h
same,effect on Tat-induced reporter activity,[1],reduced Tat-induced reporter activity in a dose-dependent fashion
same,effect on TNF-α-induced luciferase production,[2],slightly enhance TNF-α-induced luciferase production; also recorded: not active
same,expression level of endogenous CDK9,CDK9,remained unchanged
same,expression level of endogenous cyclin T1,cyclin T1,remained unchanged
same,activity on fusion protein of Tat basic domain with GFP (Tat49–57-GFP),Tat-GFP fusion protein; pEF1-Tat49–57-GFP,not sufficient to mediate the susceptibility to triptolide
same,steady-state level of Tat-GFP,Tat-GFP fusion protein; pEF1-Tat-GFP,reduced the steady-state levels of Tat-GFP dose-dependently
same,Tat protein expression,FLAG-Tat,reduced to undetectable level
